# “Also recorded” adds a separate entry of the source. Where no end group is shown, it is not given here.
# Tests used:
# [1] = system: E. coli ATCC 25922; assay type: cell-based, Escherichia coli
# [2] = system: trypsin; assay: Digestive enzyme sensitivity (inhibition zone assay); conditions: 37°C, 3 h, 50 μg/ml peptide, inhibition zone assay against E. coli ATCC 25922, repeated three times
# Method: The sensitivities of OaBac5mini to different pH, temperature, digestive enzymes, and repeated freeze-thawing conditions were determined using the inhibition zone assay as previously described ([23]). For pH sensitivity, OaBac5mini was diluted with each solution whose pH was individually adjusted to 2, 3, 4, 5, 6, 7, 8, 9, 10, 11 with HCl or NaOH, and incubated for 2 h, followed by adjusting the pH to 7 to end the reaction. For temperature sensitivity, the diluted peptide was incubated at 30, 40, 50, 60, 70, 80, 90, and 100°C for 30 min. To determine the digestive enzymes sensitivity, OaBac5mini was incubated with 100 μg/ml pepsin (in pH 2 sterile water, sigma, USA), 5–100 μg/ml trypsin (in pH 6.8 KH2PO4 buffer, sigma, USA) and 100 μg/ml protease K (Solarbio, China) at 37°C for 3 h, respectively. To end the reaction after incubation, the pepsin buffer was adjusted to pH 8, the trypsin solution and protease K solution were incubated at 95°C for 10 min. For repeated freeze-thawing sensitivity, OaBac5mini was frozen and then thawed at room temperature 0–12 times. All the final concentrations of OaBac5mini in sensitivity tests were 50 μg/ml. All experiments were repeated three times.
# [3] = biological target: T1, proteinase K (Parengyodontium album, UniProt P06873); assay: as above; assay type: in vitro ADME; conditions: 100 μg/ml protease K, 37°C, 3 h; 50 μg/ml peptide; inhibition zone assay against E. coli ATCC 25922; repeated three times
# T1 construct: purchased Solarbio, China
# T1 sequence (P06873 106-384): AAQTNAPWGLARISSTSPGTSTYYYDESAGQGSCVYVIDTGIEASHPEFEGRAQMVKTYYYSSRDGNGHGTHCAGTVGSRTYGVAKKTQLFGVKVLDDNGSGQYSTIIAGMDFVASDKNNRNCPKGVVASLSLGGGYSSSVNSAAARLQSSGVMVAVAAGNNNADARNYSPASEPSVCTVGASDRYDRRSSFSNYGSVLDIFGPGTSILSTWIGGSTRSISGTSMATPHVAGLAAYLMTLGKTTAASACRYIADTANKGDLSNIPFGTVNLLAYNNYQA
# Description: All experiments were repeated three times.
# [4] = system: E. coli ATCC 25922; assay: Time-kill curve; assay type: cell-based, Escherichia coli; conditions: MH broth, 37°C, 5×10^5 CFU/ml, triplicate
# Method: To investigate the time-kill effect of OaBac5mini against E. coli ATCC 25922, bacteria (5×10^5 CFU/ml) were cultured in fresh Mueller-Hinton (MH) broth (Yashi Organisms, China) with different concentrations of OaBac5mini (0, 50, 100, and 200 μg/ml) at 37°C with shaking at the speed of 220 rpm. Equal amounts (100 μl) of E. coli ATCC 25922 from each sample were withdrawn at 0, 2, 4, 6, 8, 10, 12, and 24 h, diluted with Luria-Bertani (LB) broth (Solarbio, China) and plated onto LB agar plates. Plates were placed at 37°C for 18 h for the CFU counts.
# [5] = system: E. coli ATCC 25922; assay: Integrity of the inner membrane (DiSC3(5)); assay type: cell-based, Escherichia coli; conditions: 25, 50, 100 and 200 μg/ml; 1 μM DiSC3(5); within 30 min; P < 0.05; n = 3
# Method: If the membrane is depolarized or disrupted, DiSC3(5) is released into the aqueous medium and leads to increased fluorescence. The DiSC3(5) assay was conducted following the instruction of Sautrey et al. ([26]) with minor modifications. […] Fluorescence units were investigated immediately using INFINITE 200 PRO (Infinite® 2000, TECAN, Austria) at the excitation wavelength of 620 nm and emission wavelength of 670 nm for 30 min at 1 min intervals. Triple experiments were conducted with three individual clones of E. coli ATCC 25922.
# [6] = system: E. coli O157:H7; conditions: cited from earlier work
# Method: Salt ions in serum are important factors affecting the antibacterial activity of AMPs in vivo because they can bind to the negatively charged groups of lipopolysaccharide (LPS), a monolayer molecule on the outer membrane of Gram-negative bacteria ([29]). […] But in the presence of physiological concentrations of CaCl2, the MIC of OaBac5mini increased four-fold and attained 100 μg/ml (Table 2). It has been reported that the ...
sequence,measurement,setting,value
RFRPPIRRPPIRPPFRPPFRPPVR [OaBac5mini],Increase of MIC in the presence of physiological concentration of CaCl2,"[1]; 2.5 mM CaCl2 versus MH broth alone, E. coli ATCC 25922",four-fold
same,MIC against E. coli ATCC 25922 in MH broth,[1]; ATCC 25922,25 µg/mL
same,MIC against E. coli ATCC 25922 in MH broth + CaCl2,[1]; ATCC 25922,100 µg/mL
same,MIC against E. coli ATCC 25922 in MH broth + FeCl3,[1]; ATCC 25922,16.67 µg/mL
same,MIC against E. coli ATCC 25922 in MH broth + KCl,[1]; ATCC 25922,20.83 µg/mL
same,MIC against E. coli ATCC 25922 in MH broth + MgCl2,[1]; ATCC 25922,50 µg/mL
same,MIC against E. coli ATCC 25922 in MH broth + NH4Cl,[1]; ATCC 25922,12.5 µg/mL
same,MIC against E. coli ATCC 25922 in MH broth + NaCl,[1]; ATCC 25922,33.33 µg/mL
same,Antibacterial activity after treatment with trypsin 20 to 100 μg/ml,[2]; trypsin 20 to 100 μg/ml in pH 6.8 KH2PO4 buffer,completely lost activity
same,Antibacterial activity after treatment with trypsin at low concentrations,[2]; trypsin ≤ 10 μg/ml (< 20 μg/mL) in pH 6.8 KH2PO4 buffer,stable antibacterial activity; also recorded: no significant effect
same,Antibacterial activity after treatment with proteinase K,[3],stable antibacterial activity; also recorded: no significant effect
same,Time-kill effect at 50 μg/ml (2 × MIC),"[4]; 50 μg/ml, 24 h",the number of bacteria remained stable in the first co-incubation for 8h before it increased
same,Time-kill effect at 100 μg/ml,"[4]; 100 μg/ml, 24 h",decrease after co-incubation for 12 h and increase in further co-incubation for 12 h
same,Time-kill effect at 200 μg/ml (8 × MIC),"[4]; 200 μg/ml, co-incubation for 12 h",could effectively kill; also recorded: effectively killed
same,Average fluorescence intensity of DiSC3(5) (inner membrane integrity),[5],significantly increased
same,MIC against E. coli O157:H7 in the presence of 100 mM NaCl,[6],about 30 μg/ml

# — PMC9995905, “Characteristics of antimicrobial peptide OaBac5mini and its bactericidal mechanism against Escherichia coli” (Frontiers in Veterinary Science, 2023)
